For orientation: IC50 means the concentration needed to halve the response being measured.

From US20210330611A1, “THERAPY FOR NEUROLOGICAL DISEASES/DISORDERS” (priority 2020, published 2021) come the findings set out here.

Structures are written as SMILES. Counter-ions that a name gives are not always drawn. Like-named read-outs stand apart in the source and are kept apart here.

Series [1] has as its system fibrin- and LPS-induced microglia activation. Kind of series: cells. It counts as cell-based, rat. The conditions noted are these: for inhibition at 10 µM: Rattus norvegicus.
The subject of series [2] is LPS-induced microglia activation. As to the kind of experiment: Image-based assay of LPS-induced microglia activation (HTS and dose response). It counts as cell-based, rat. To be noted: Rattus norvegicus, Microglia; for inhibition at 10 µM: primary microglia HTS, LPS stimulation, read-out: LPS % inhibition.
The subject of series [3] is fibrin-induced microglia activation. As to the kind of experiment: Image-based assay of fibrin-induced microglia activation (HTS and dose response). The conditions noted are these: for IC50 / inhibition at 10 µM: Rattus norvegicus, Microglia; for inhibition at 10 µM: primary microglia HTS, fibrin stimulation, read-out: Fibrin % inhibition. It counts as cell-based, rat.
Series [4] is described as follows: in vitro. To be noted: rat, Cell Toxicity IC50 (uM) [cFib assay].
The test system of series [5] is primary rat microglia. Kind of series: Cell toxicity (dead cells, size <150 μm2) in LPS assay. To be noted: for LPS % cell toxicity: primary microglia HTS, LPS stimulation, decreased size (<150 μm^2) as marker of toxicity; for IC50: read-out: Cell Toxicity IC50 (uM) [LPS assay], LPS assay.
The subject of series [6] is primary rat microglia. The conditions noted are these: rat.
The test system of series [7] is primary rat microglia. As to the kind of experiment: Cell toxicity (dead cells, size <150 μm2) in coated fibrin (cFib) assay.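 As to Fibrin % cell toxicity: share of dead cells sized under 150 µm2 at 10 µM in fibrin-stimulated microglia HTS.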 To be noted: primary microglia HTS.
The nature of series [8]: in vitro. To be noted: rat.
Setting [9] is: HTS of 1907 compounds, quadrant by fibrin and LPS inhibition.
The mark [10] stands for this setting: Microglia, HTS hit classification, read-out: Hit.
Setting [11] is: hit classification in microglia HTS, read-out: Cherry-picked Hit (Suppl. Table 7).
Setting [12] is: quadrant by fibrin and LPS inhibition in HTS of 1907 compounds.
Setting [13] is: 48 h, Table 1, dose response 0.001-20 μM, triplicates, primary rat microglia, 48 h, read-out: LPS IC50.
[14] abbreviates: 48 h, increased cell size (>800 μm^2) as marker of activation.
The mark [15] stands for this setting: LPS-induced microglia activation, dose response, read-out: LPS IC50 (uM) (Suppl. Table 7).
Where [16] appears, read: dose response, LPS-induced microglia activation, read-out: LPS IC50.
[17] abbreviates: 48 h, Table 1, dose response 0.001-20 μM, triplicates, primary rat microglia, 48 h, read-out: Fibrin IC50.
Where [18] appears, read: dose response, fibrin-induced microglia activation, read-out: Fibrin IC50.
The mark [19] stands for this setting: fibrin-induced microglia activation, dose response, read-out: Fibrin IC50 (uM) (Suppl. Table 7).
Where [20] appears, read: increased cell size (>800 μm^2) as marker of activation.
The mark [21] stands for this setting: fibrin stimulation, decreased size (<150 μm^2) as marker of toxicity.
Setting [22] is: Microglia, Table 3, read-out: Cherry-picked Hit (Suppl. Table 7).
The mark [23] stands for this setting: Table 3, read-out: LPS IC50 (uM) (Suppl. Table 7).
[24] abbreviates: Table 3, read-out: Fibrin IC50 (uM) (Suppl. Table 7).

On to `CCN1CCCC1CNC(=O)c1cc(S(=O)(=O)CC)c(N)cc1OC` (stereo not drawn) [Amisulpride, reference compound], for which the “Quadrant (FIG. 5b)” value in series [1] (setting [9]) is “Q3”; in series [1] (Table 1, screen at 10 μM), “Q3”; in series [1] (setting [12]), “Q3”; in series [1] (quadrant by fibrin and LPS inhibition, HTS at 10 μM), “Q4”. Also, the inhibition at 10 µM in series [1] (setting [10]) was greater than 50%; in series [1] (setting [11]), greater than 50%; in series [2] (setting [14]), 31%; in series [2] (compounds at 10 μM), 12%; in series [3] (compounds at 10 μM), -5%; in series [3] (setting [20]) it was 54%. Moreover, the IC50 is greater than 20 µM in series [2] (setting [13]); greater than 20 µM in series [2] (setting [15]); greater than 20 µM in series [2] (setting [16]); 20 µM in series [3] (setting [17]); 20 µM in series [3] (setting [18]); 20 µM in series [3] (setting [19]). Also, the IC50 in “in vitro [4]” (cFib assay) and in the series “in vitro [8]” was greater than 20 µM each time. The “LPS % cell toxicity” value in the series with primary rat microglia [5] turned out to be 1%; in the series on primary rat microglia [6], 0%. Further, the “Fibrin % cell toxicity” value with primary rat microglia [7] (fibrin assay, dead cells (size <150 μm2)) is 1%; in the series with primary rat microglia [7] (setting [21]), 2%.

For `CC(=O)O[C@@]12CO[C@@H]1C[C@H](O)[C@@]1(C)C(=O)[C@H](O)C3=C(C)[C@@H](OC(=O)[C@H](O)[C@@H](NC(=O)OC(C)(C)C)c4ccccc4)C[C@@](O)([C@@H](OC(=O)c4ccccc4)[C@H]21)C3(C)C` [Docetaxel, reference compound], the “Quadrant (FIG. 5b)” value in series [1] (setting [9]) is “Q3”; in series [1] (Table 1, screen at 10 μM), “Q3”; in series [1] (Table 3, screen at 10 μM), “Q3”; in series [1] (microglia HTS, Table 6), “Q3”; in series [1] (setting [12]), “Q3”. Further, the inhibition at 10 µM in series [1] (setting [22]) was greater than 50%; in series [1] (setting [10]), greater than 50%; in series [2] (setting [14]) it was 32%; in series [3] (setting [20]) it was 64%. Further, the half-inhibitory concentration (IC50) was greater than 20 µM in series [2] (setting [13]); greater than 20 µM in series [2] (setting [15]); greater than 20 µM in series [2] (setting [23]); greater than 20 µM in series [2] (Table 6, read-out: LPS IC50 (uM) (Suppl. Table 7)); greater than 20 µM in series [2] (setting [16]); 0.002 µM in series [3] (setting [24]). For the same compound, the IC50 in series [3] (Table 6, read-out: Fibrin IC50 (uM) (Suppl. Table 7)) is 0.002 µM; in “in vitro [4]” (Table 3), greater than 20 µM; in “in vitro [4]” (cFib assay) it was greater than 20 µM; in the series “in vitro [4]” (cFib assay, Table 6) it was greater than 20 µM; in the series with primary rat microglia [5] it was greater than 20 µM; in the series with primary rat microglia [5] (Table 6), greater than 20 µM. Also, the IC50 in the series “in vitro [8]” is greater than 20 µM. Moreover, the “Fibrin Selectivity (LOG10)” value in series [3] (fibrin vs LPS, LOG10, Table 6) turned out to be 3.99. Besides, the “Fibrin Selectivity” value in series [3] (fibrin vs LPS, Table 6) is 9814. In addition, the “LPS % cell toxicity” value in the series on primary rat microglia [6] is reported as 1%.

As to `c1ccc2[nH]c(-c3cscn3)nc2c1` [Thiabendazole, reference compound], the “Quadrant (FIG. 5b)” value in series [1] (setting [9]) is on record as “Q2”; in series [1] (Table 1, screen at 10 μM), “Q2”; in series [1] (setting [12]), “Q2”. Moreover, the inhibition at 10 µM is greater than 50% in series [1] (setting [10]), greater than 50% in series [1] (setting [11]), 62% in series [2] (setting [14]) and 58% in series [3] (setting [20]). In addition, the IC50 in series [2] (setting [13]), in series [2] (setting [15]), in series [2] (setting [16]), in series [3] (setting [17]), in series [3] (setting [18]) and in series [3] (setting [19]) was greater than 20 µM in each case. The IC50 in “in vitro [4]” (cFib assay) and in the series “in vitro [8]” was greater than 20 µM throughout. Besides, the “LPS % cell toxicity” value with primary rat microglia [5] is given as 1%. The “Fibrin % cell toxicity” value in the series with primary rat microglia [7] (setting [21]) came to 1%.

For the compound `Cc1ccc(S(=O)(=O)NC(=O)NN2CCCCCC2)cc1` [Tolazamide, reference compound], the “Quadrant (FIG. 5b)” value in series [1] (setting [9]) was “Q3”; in series [1] (Table 1, screen at 10 μM), “Q3”; in series [1] (Table 3, screen at 10 μM), “Q3”; in series [1] (setting [12]), “Q3”. Moreover, the inhibition at 10 µM in series [1] (setting [22]) was greater than 50%; in series [1] (setting [10]), greater than 50%; in series [2] (setting [14]) it was 42%; in series [3] (setting [20]), 88%. Also, the IC50 is greater than 20 µM in series [2] (setting [13]); greater than 20 µM in series [2] (setting [15]); greater than 20 µM in series [2] (setting [23]); greater than 20 µM in series [2] (setting [16]); 12 µM in series [3] (setting [17]); 12 µM in series [3] (setting [24]). In addition, the IC50 is 12 µM in series [3] (setting [18]); 12 µM in series [3] (setting [19]); greater than 20 µM in “in vitro [4]” (Table 3); greater than 20 µM in “in vitro [4]” (cFib assay); greater than 20 µM in the series on primary rat microglia [5]; greater than 20 µM in “in vitro [8]”. For the same compound, in series [3], the “Fibrin Selectivity” value was found to be 2. In series [3], the “Fibrin Selectivity (LOG10)” value is reported as 0.23. Further, in the series with primary rat microglia [5], the “LPS % cell toxicity” value was found to be 0%. The “Fibrin % cell toxicity” value with primary rat microglia [7] (setting [21]) was found to be 1%.

`Cc1cccc(N(C)C(=S)Oc2ccc3ccccc3c2)c1` [Tolnaftate, reference compound]: the “Quadrant (FIG. 5b)” value is recorded as “Q2” in series [1] (setting [9]); “Q2” in series [1] (Table 1, screen at 10 μM); “Q2” in series [1] (Table 3, screen at 10 μM); “Q2” in series [1] (setting [12]). Moreover, the inhibition at 10 µM in series [1] (setting [22]) was greater than 50%; in series [1] (setting [10]) it was greater than 50%; in series [2] (setting [14]), 60%; in series [3] (setting [20]), 76%. Also, the concentration for half-maximal inhibition (IC50) in series [3] (setting [17]) was 2 µM; in series [3] (setting [24]) it was 2 µM; in series [3] (setting [18]), 2 µM; in series [3] (setting [19]), 2 µM; in “in vitro [4]” (Table 3), greater than 20 µM; in the series “in vitro [4]” (cFib assay), greater than 20 µM. Also, the IC50 with primary rat microglia [5] and in “in vitro [8]” was greater than 20 µM in each case. Also, in the series with primary rat microglia [5], the “LPS % cell toxicity” value is 1%. Moreover, the “Fibrin % cell toxicity” value in the series on primary rat microglia [7] (setting [21]) is 1%.

For `Cc1cc(-n2c(=O)[nH]c(=O)n(C)c2=O)ccc1Oc1ccc(SC(F)(F)F)cc1` [Toltrazuril, reference compound], the “Quadrant (FIG. 5b)” value is recorded as “Q2” in series [1] (setting [9]); “Q2” in series [1] (Table 1, screen at 10 μM); “Q2” in series [1] (setting [12]). Besides, the inhibition at 10 µM in series [1] (setting [10]) was greater than 50%; in series [1] (setting [11]), greater than 50%; in series [2] (setting [14]) it was 90%; in series [3] (setting [20]), 104%. For the same compound, the IC50 in series [2] (setting [13]), in series [2] (setting [15]), in series [2] (setting [16]), in series [3] (setting [17]), in series [3] (setting [18]) and in series [3] (setting [19]) was greater than 20 µM throughout. Moreover, the IC50 in “in vitro [4]” (cFib assay) and in the series “in vitro [8]” was greater than 20 µM in each case. In addition, the “LPS % cell toxicity” value in the series on primary rat microglia [5] is listed as 2%. Moreover, the “Fibrin % cell toxicity” value in the series with primary rat microglia [7] (setting [21]) was determined as 3%.

For the compound `Cc1cccc(C)c1N=C1NCCCS1` [Xylazine hydrochloride, reference compound], the “Quadrant (FIG. 5b)” value was “Q2” in series [1] (setting [9]); “Q2” in series [1] (Table 1, screen at 10 μM); “Q2” in series [1] (Table 3, screen at 10 μM); “Q2” in series [1] (setting [12]). Also, the inhibition at 10 µM in series [1] (setting [22]) is greater than 50%; in series [1] (setting [10]), greater than 50%; in series [2] (setting [14]) it was 72%; in series [3] (setting [20]) it was 102%. Also, the IC50 in series [2] (setting [13]) amounted to 8 µM; in series [2] (setting [15]) it was 8 µM; in series [2] (setting [23]), 8 µM; in series [2] (setting [16]), 8 µM; in series [3] (setting [17]) it was 2 µM; in series [3] (setting [24]), 2 µM. For the same compound, the IC50 in series [3] (setting [18]) was 2 µM; in series [3] (setting [19]), 2 µM; in “in vitro [4]” (Table 3), greater than 20 µM; in “in vitro [4]” (cFib assay), greater than 20 µM; in the series with primary rat microglia [5], greater than 20 µM; in “in vitro [8]”, greater than 20 µM. Further, in series [3], the “Fibrin Selectivity” value is given as 5. For the same compound, the “Fibrin Selectivity (LOG10)” value in series [3] was found to be 0.72. Further, in the series with primary rat microglia [5], the “LPS % cell toxicity” value amounted to 2%. Moreover, the “Fibrin % cell toxicity” value in the series on primary rat microglia [7] (setting [21]) is given as 1%.
